Measurements taken from US7671055B2, “Insecticidal 3-(dihaloalkenyl) phenyl derivatives” (FMC Corporation, priority 2004, dated 2010).

Test system: tobacco budworm (Heliothis virescens [Fabricius])
Experiment: surface-treated diet test against tobacco budworm
Assay type: in vivo
Details: 0.25 millimolar on surface of diet; second instar larvae; five-day exposure; inhibition of insect weight relative to untreated controls
Method: Candidate insecticides were evaluated for activity against the tobacco budworm (Heliothis virescens [Fabricius]) in a surface-treated diet test.
In this test one mL of molten (65-70° C.) wheat germ-based artificial diet was pipetted into each well of a four by six (24 well) multi-well plate (ID#430345-15—[…].×17.6 mm deep; Corning Costar Corp., One Alewife Center, Cambridge, Mass. 02140). The diet was allowed to cool to ambient temperature before treatment with candidate insecticide.
For a determination of insecticidal activity, solutions of the candidate insecticides were prepared for testing using a Packard 204DT Multiprobe® Robotic System (Packard Instrument Company, 800 Research Parkway, Meriden, Conn. 06450), in which the robot first diluted a standard 50 millimolar DMSO solution of candidate insecticide with a 1:1 water/acetone solution (V/V) in a ratio of 1:7 stock solution to water/acetone. The robot subsequently pipetted 40 microliters of the so-prepared solution onto the surface of the diet in each of three wells in the 24 multi-well plate. The process was repeated with solutions of seven other candidate insecticides. […]
After the five-day exposure period insecticidal activity for each rate of application of candidate insecticide was assessed as percent inhibition of insect weight relative to the weight of insects from untreated controls. […]

Row | SMILES | Percent Growth Inhibition
1 | CC1(C)Cc2cccc(OCCCCOc3cc(OCC=C(Cl)Cl)cc(Cl)c3Cl)c2O1 [Compound 2, 7-{4-[5-(3,3-dichloroprop-2-enyloxy)-2,3-dichlorophenoxy]butoxy}-2,2-dimethyl-2,3-dihydro-benzo[b]furan] | 100%
2 | FC(F)(F)c1ccc(N2CCN(c3cc(OCC=C(Cl)Cl)cc(Cl)c3Br)CC2)nc1 [Compound 19, 5-(3,3-dichloroprop-2-enyloxy)-2-bromo-3-chloro-1-{4-[5-(trifluoromethyl)(2-pyridyl)]piperazinyl}-benzene] | 100%
